The text below walks through data of patent publication US20230172940A1, “METHODS OF EXTENDING LIFESPAN BY ADMINISTERING FERROPTOSIS INHIBITORS” (COLLABORATIVE MEDICINAL DEVELOPMENT, LLC, priority 2020, published 2023).

Molecules are shown by their SMILES.

For one assay, the system named is C. elegans. The following applies: iron chelators, literature reports; cited from earlier work.
The test system of another assay is OP50 E. coli. Put plainly: Bacterial growth assay (OD600). In kind it is cell-based, Escherichia coli. The following applies: 50 or 100 μg/mL; after 12 hours, 37° C. As for the experimental part:
The effects of test compounds on growth of the OP50 E. coli feed was assayed using optical density at 600 nm (OD600). Using standard microtitre plates, replicate wells of 200 μL of sterile Luria broth were inoculated with 2 μL of an overnight OP50 culture in addition to the stated final concentrations of ampicillin (Amp), Lip-1 and SIH. OD600 measures were taken after 12 hours in an EnSpire (PerkinElmer) spectrophotometric plate reader preset to 37° C., with 30 sec of 200 rpm orbital shaking every 10 minutes.
Data was averaged across duplicate experiments, each with eight replicate wells per treatment where a baseline of Luria broth without an inoculate was subtracted.

A further assay relates to C. elegans strain TJ1060. Briefly: Lifespan determination. The note with it: alternative ferroptosis inhibitor. Type of assay: in vivo, Caenorhabditis elegans. As for the experimental part: Lifespan was measured using established protocols. SIH was dissolved in neat dimethyl sulfoxide (DMSO; Sigma-Aldrich) then added to the molten NGM at 55° C. (to a final concentration of 250 μM SIH in 0.5% v/v DMSO). Lip-1 was dissolved in neat DMSO then added to the molten NGM at 55° C. (to a final concentration of 200 μM Lip-1 in 0.5% v/v DMSO). Media containing equivalent vehicle alone (0.5% v/v DMSO) was used for comparison. Standard overnight culture of the Escherichia coli (E. coli) strain OP50 was used as the food source.
Lifespan data was collected at 25 (±1) ° C. using the temperature sensitive-sterile strain TJ1060 [spe-9(hc88); fer-15(b26)]. A synchronous population was obtained by transferring egg-laying adults to fresh plates at 16° C. for 2-3 hours. The adults were removed and the plates with eggs then transferred to 25° C. to ensure sterility. After 48 hours at 25° C., when worms were at the late L4/young adult stage, 25-35 nematodes were transferred to fresh plates containing either vehicle control, 250 μM SIH, or 200 μM Lip-1. All plates were coded to allowing blinding of the experimenter to the treatment regime during scoring. Nematodes were scored for survival at one to three-day intervals and transferred to freshly prepared plates as needed (2-5 days).
It is well documented that differences are observed between independent measures of lifespan, with micro-environmental factors such as minor temperature fluctuations potentially resulting differences in median and maximum lifespan between replicates. After determining the optimal doses of 250 μM SIH and 200 μM Lip-1, respectively, cohorts of nematodes were compared in 8 independent replicates. As the number of worms measured is known to influence the likelihood of accurately observing differences in lifespan, the starting populations for all treatments within experiments were in excess of 70 individuals.

Take `Cc1c(O)c(=O)ccn1C` [deferiprone]: the “effect on C. elegans lifespan as reported” value in the assay on C. elegans is reported as “not to impact C. elegans lifespan”.
In the case of `CC1(C)S[C@@H]2[C@H](NC(=O)[C@H](N)c3ccccc3)C(=O)N2[C@H]1C(=O)O` [ampicillin], the “growth of OP50 E. coli (OD600)” value with OP50 E. coli is “completely suppressed bacterial growth”.
On to `O=C(O)CN(CCN(CC(=O)O)CC(=O)O)CC(=O)O.[Ca]` [CaEDTA, calcium-ethylenediaminetetraacetic acid], for which the “effect on C. elegans lifespan as reported” value with C. elegans is recorded as “minor (undisclosed) increase in lifespan”.
`CCOC(=O)c1ccc(NC2CCCCC2)c(N)c1` [ferrostatin]: the median lifespan extension result in the assay on C. elegans strain TJ1060 is “significant but more modest median lifespan extension”.
